Assay results as given in ChEMBL document CHEMBL4359854, “Repurposing mosloflavone/5,6,7-trimethoxyflavone-resveratrol hybrids: Discovery of novel p38-α MAPK inhibitors as potent interceptors of macrophage-dependent production of proinflammatory mediators” (Eur J Med Chem, 2019).
Active and inactive are the calls of the source. The rule behind the calls is not given here.

How the values were obtained:
[1] = tested on: RAW264.7; assay: Anti-inflammatory activity in mouse RAW264.7 cells assessed as remaining LPS-induced NO production at 40 uM preincubated for 1 hr followed by LPS addition and measured after 24 hrs by Griess reagent-based assay relative to control; assay type: functional
[2] = tested on: RAW264.7; assay: Effect on IL-6 production in mouse RAW264.7 cells assessed as increase in IL-6 production up to 5 uM measured after 1 hr by EIA; assay type: ADME, cell-based; settings: raw264.7, 1 h
[3] = tested on: RAW264.7; assay: Effect on TNF-alpha production in mouse RAW264.7 cells assessed as increase in TNFalpha production at up to 5 uM measured after 1 hr by EIA; assay type: ADME, cell-based; settings: raw264.7, 1 h
[4] = biological target: Mitogen-activated protein kinase 14 (Mus musculus) (UniProt P47811); assay: Inhibition of p38alpha MAPK in LPS-stimulated mouse RAW264.7 cells assessed as reduction in p38alpha MAPK phosphorylation incubated for 60 mins by Western blot analysis; assay type: cell-based
Chain of Mitogen-activated protein kinase 14 (Mus musculus) (P47811 whole entry): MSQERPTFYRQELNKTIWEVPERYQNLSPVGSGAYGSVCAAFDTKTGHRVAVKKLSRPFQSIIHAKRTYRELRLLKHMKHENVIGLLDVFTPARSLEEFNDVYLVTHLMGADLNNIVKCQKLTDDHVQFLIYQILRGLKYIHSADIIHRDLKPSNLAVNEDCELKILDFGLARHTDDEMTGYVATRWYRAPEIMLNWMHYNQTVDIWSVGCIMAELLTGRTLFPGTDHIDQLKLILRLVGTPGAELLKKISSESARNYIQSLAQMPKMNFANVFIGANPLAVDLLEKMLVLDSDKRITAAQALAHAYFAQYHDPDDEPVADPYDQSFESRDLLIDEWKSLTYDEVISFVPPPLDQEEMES

[5] = tested on: RAW264.7; assay: Anti-inflammatory activity in mouse RAW264.7 cells assessed as inhibition of LPS-induced TNFalpha production at 1 uM preincubated for 1 hr followed by LPS addition and measured after 24 hrs by EIA relative to control; assay type: functional
[6] = biological target: T1, Mitogen-activated protein kinase 14 (Mus musculus, UniProt P47811); assay: Inhibition of p38alpha MAPK in unstimulated mouse RAW264.7 cells assessed as reduction in p38alpha MAPK phosphorylation at 4 uM incubated for 60 mins by Western blot analysis; assay type: cell-based; settings: RAW264.7, mouse, 1 h
T1 sequence (P47811 whole entry): as above

[7] = tested on: RAW264.7; assay: Anti-inflammatory activity in mouse RAW264.7 cells assessed as inhibition of LPS-induced IL-1beta production at 1 uM preincubated for 1 hr followed by LPS addition and measured after 24 hrs by EIA relative to control; assay type: functional
[8] = tested on: RAW264.7; assay: Anti-inflammatory activity in mouse RAW264.7 cells assessed as inhibition of LPS-induced TNFalpha production at 0.5 uM preincubated for 1 hr followed by LPS addition and measured after 24 hrs by EIA; assay type: functional, cell-based
[9] = tested on: RAW264.7; assay: Anti-inflammatory activity in mouse RAW264.7 cells assessed as inhibition of LPS-induced NO production at 1 uM preincubated for 1 hr followed by LPS addition and measured after 24 hrs by Griess reagent-based assay relative to control; assay type: functional
[10] = tested on: RAW264.7; assay: Anti-inflammatory activity in mouse RAW264.7 cells assessed as inhibition of LPS-induced IL-6 production preincubated for 1 hr followed by LPS addition and measured after 24 hrs by EIA; assay type: functional, cell-based
[11] = tested on: RAW264.7; assay: Anti-inflammatory activity in mouse RAW264.7 cells assessed as inhibition of LPS-induced IL-6 production at 1 uM preincubated for 1 hr followed by LPS addition and measured after 24 hrs by EIA relative to control; assay type: functional
[12] = tested on: RAW264.7; assay: Anti-inflammatory activity in mouse RAW264.7 cells assessed as inhibition of LPS-induced NO production at 0.5 uM preincubated for 1 hr followed by LPS addition and measured after 24 hrs by Griess reagent-based assay; assay type: functional, cell-based
[13] = biological target: Mitogen-activated protein kinase 14 (Mus musculus) (UniProt P47811); assay: Inhibition of p38alpha MAPK in LPS-stimulated mouse RAW264.7 cells assessed as reduction in p38alpha MAPK phosphorylation at 4 uM incubated for 60 mins by Western blot analysis; assay type: cell-based
[14] = tested on: RAW264.7; assay: Anti-inflammatory activity in mouse RAW264.7 cells assessed as inhibition of LPS-induced PGE2 production at 1 uM preincubated for 1 hr followed by LPS addition and measured after 24 hrs by EIA relative to control; assay type: functional
[15] = tested on: RAW264.7; assay: Anti-inflammatory activity in mouse RAW264.7 cells assessed as inhibition of LPS-induced TNFalpha production preincubated for 1 hr followed by LPS addition and measured after 24 hrs by EIA; assay type: functional, cell-based
[16] = tested on: RAW264.7; assay: Anti-inflammatory activity in mouse RAW264.7 cells assessed as inhibition of LPS-induced NO production preincubated for 1 hr followed by LPS addition and measured after 24 hrs by Griess reagent-based assay; assay type: functional, cell-based
[17] = biological target: T1, Mitogen-activated protein kinase 14; assay: Inhibition of p38alpha MAPK in unstimulated mouse RAW264.7 cells assessed as reduction in p38alpha MAPK phosphorylation at 2 uM incubated for 60 mins by Western blot analysis; assay type: cell-based; settings: raw264.7, 1 h
[18] = biological target: Mitogen-activated protein kinase 14 (Mus musculus) (UniProt P47811); assay: Inhibition of p38alpha MAPK in LPS-stimulated mouse RAW264.7 cells assessed as reduction in p38alpha MAPK phosphorylation at 2 uM incubated for 60 mins by Western blot analysis; assay type: cell-based
[19] = tested on: RAW264.7; assay: Anti-inflammatory activity in mouse RAW264.7 cells assessed as inhibition of LPS-induced PGE2 production preincubated for 1 hr followed by LPS addition and measured after 24 hrs by EIA; assay type: functional, cell-based
[20] = tested on: RAW264.7; assay: Anti-inflammatory activity in mouse RAW264.7 cells assessed as inhibition of LPS-induced PGE2 production at 0.2 uM preincubated for 1 hr followed by LPS addition and measured after 24 hrs by EIA; assay type: functional, cell-based
[21] = Cytotoxicity against LPS-induced mouse RAW264.7 cells assessed as cell viability at 1 uM incubated for 24 hrs by MTT assay relative to control; assay type: cell-based; settings: LPS-induced RAW264.7 cells, read-out: Activity
[22] = tested on: RAW264.7; assay: Effect on NO production in mouse RAW264.7 cells assessed as inhibition of NO production at 2 to 5 uM incubated for 24 hrs by Griess reagent-based assay; assay type: cell-based; settings: raw264.7, 24 h
[23] = tested on: RAW264.7; assay: Anti-inflammatory activity in mouse RAW264.7 cells assessed as inhibition of LPS-induced IL-6 production at 1 to 5 uM preincubated for 1 hr followed by LPS addition and measured after 24 hrs by EIA; assay type: functional, cell-based
[24] = tested on: RAW264.7; assay: Anti-inflammatory activity in mouse RAW264.7 cells assessed as inhibition of LPS-induced PGE2 production at 10 nM preincubated for 1 hr followed by LPS addition and measured after 24 hrs by EIA relative to control; assay type: functional
[25] = biological target: Mitogen-activated protein kinase 14 (Mus musculus) (UniProt P47811); assay: Inhibition of p38alpha MAPK in LPS-stimulated mouse RAW264.7 cells assessed as reduction in MK2 phosphorylation at 5 uM incubated for 120 mins by Western blot analysis; assay type: cell-based
[26] = tested on: RAW264.7; assay: Anti-inflammatory activity in mouse RAW264.7 cells assessed as inhibition of LPS-induced PGE2 production at 40 nM preincubated for 1 hr followed by LPS addition and measured after 24 hrs by EIA; assay type: functional, cell-based
[27] = tested on: RAW264.7; assay: Anti-inflammatory activity in mouse RAW264.7 cells assessed as inhibition of LPS-induced IL-6 production at 0.5 uM preincubated for 1 hr followed by LPS addition and measured after 24 hrs by EIA; assay type: functional, cell-based
[28] = biological target: Mitogen-activated protein kinase 14 (Mus musculus) (UniProt P47811); assay: Inhibition of p38alpha MAPK in LPS-stimulated mouse RAW264.7 cells assessed as reduction in MK2 phosphorylation at 5 uM by Western blot analysis; assay type: cell-based; settings: TDE = time-dependent effect
[29] = biological target: Mitogen-activated protein kinase 14 (Mus musculus) (UniProt P47811); assay: Inhibition of p38alpha MAPK in LPS-stimulated mouse RAW264.7 cells assessed as reduction in p38alpha MAPK phosphorylation at 5 uM incubated for 60 mins by Western blot analysis; assay type: cell-based

IC50 [16]	IC50 [19]	SMILES	Activity [2]	Activity [3]	inhibition at 1 µM [5]	inhibition at 1 µM [7]	inhibition [8]	inhibition at 1 µM [9]	inhibition [10]	inhibition at 1 µM [11]	inhibition [12]	inhibition at 1 µM [14]	inhibition [15]	inhibition [16]	inhibition [19]	inhibition [20]	viability at 24 h, 1 µM [21]	Activity [22]	inhibition [23]	inhibition [26]	other results
		CC(=N)NCCCC[C@H](N)C(=O)O [L-NIL]																			Activity [1]: 29 - 35%
2110 nM	980 nM	COc1cc(NC(=O)c2cccc(-c3cc(=O)c4c(O)c(OC)c(OC)cc4o3)c2)cc(OC)c1OC	Non-Toxic	Non-Toxic	29.4%	41%	Active	44.8%	Dose-dependent effect	53.5%	Active	35.7%	Dose-dependent effect	Dose-dependent effect	Dose-dependent effect	inactive	144%	Non-Toxic	Active		inhibition [4]: Dose-dependent effect; inhibition at 4 µM [6]: 100%; inhibition [13]: 100%; inhibition (INH) [17]: Active; inhibition [18]: Active
		CS(=O)(=O)Nc1ccc([N+](=O)[O-])cc1OC1CCCCC1 [NS-398]																			inhibition at 0.01 µM [24]: 58%
	310 nM	COc1ccccc1C(=O)Nc1cccc(-c2cc(=O)c3c(O)c(OC)c(OC)cc3o2)c1			-9.74%	41.3%		2.62%		-9.4%		82.8%			Dose-dependent effect		90.9%			Active	inhibition [25]: Active
2750 nM	3400 nM	COc1cc(NC(=O)c2cccc(-c3cc(=O)c4c(OC)c(OC)c(OC)cc4o3)c2)cc(OC)c1OC	Non-Toxic	Non-Toxic	28.6%	143%	Active	48.3%	Dose-dependent effect	31.9%	inactive	11.2%	Dose-dependent effect	Dose-dependent effect	Dose-dependent effect	inactive	113%	Non-Toxic	Active		inhibition [27]: Active
	590 nM	COc1ccccc1C(=O)Nc1ccc(-c2cc(=O)c3c(OC)c(OC)c(OC)cc3o2)cc1			-51.3%	14.5%		7.04%		-50%		78.8%			Dose-dependent effect		108%			Active	inhibition [28]: Tde; inhibition [29]: Active
